Residues, ends and D or L forms follow the SMILES beside them.

Experiment [1] has as its target T1, PD-1/PD-L1 (Homo sapiens (Human), UniProt Q9NZQ7). Description: PD-1/PD-L1 binding assay (Alphascreen). As to the method:
Binding assays were conducted in a low volume white 384-well polystyrene plate in a final volume of 20 μL. Compounds to be analyzed were first serially diluted in DMSO and added to the plate wells before the addition of other reaction components. The final concentration of DMSO in the assay was 1%. The assay was carried out at 25° C. in the PBS buffer (pH 7.4) with 0.05% Tween-20 and 0.1% BSA. Recombinant human PD-L1 protein (19-238) with a His-tag at the C-terminus was purchased from AcroBiosystems (PD1-H5229). Recombinant human PD-1 protein (25-167) with Fc tag at the C-terminus was also from AcroBiosystems (PD1-H5257). PD-L1 and PD-1 proteins were diluted in the assay buffer (final concentration −0.67 and 0.20 nM respectively) and 10 μL was added to the plate well. Plates were centrifuged and proteins were preincubated with compounds for 40 minutes. The incubation was followed by the addition of 10 μL of assay buffer supplemented with Alphascreen Ni chelate donor beads (PerkinElmer-AS101D) and Protein A Acceptor beads (PerkinElmer-6760137) at final concentration 2.5 μg/mL under reduced light. After plate sealing, the plate was incubated in the dark at room temperature for 120 minutes before reading on a PHERAstar FS plate reader (BMG Labtech). […]

Experiment [2] addresses T1, PD-1/PD-L1. Description: PD-1/PD-L1 binding assay (HTRF). In a few lines:
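Fc-tagged human PD-1 (25-167) and His-tagged PD-L1 (19-238), listed as […] and 10 nM final, preincubated 40 min with inhibitors in PBS pH 7.4, 0.05% Tween-20, 0.1% BSA, 1% DMSO, 25 °C. Eu anti-IgG/APC anti-His added, 60 min, 665/620 nm HTRF ratio; IC50 fitted from percent control activity.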
In general terms: TR-FRET usually uses a lanthanide donor and a delayed reading to cut background.

T1 sequence (Q9NZQ7 19-238): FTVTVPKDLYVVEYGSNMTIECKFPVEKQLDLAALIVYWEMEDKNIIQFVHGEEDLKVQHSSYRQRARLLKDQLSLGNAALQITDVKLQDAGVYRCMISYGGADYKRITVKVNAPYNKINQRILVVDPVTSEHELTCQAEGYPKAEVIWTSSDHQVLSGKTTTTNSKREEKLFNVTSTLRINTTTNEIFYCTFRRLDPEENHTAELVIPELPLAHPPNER

As a reminder, the IC50 is the point on the concentration scale where inhibition reaches its midpoint. Read a low IC50 as greater potency. On to `CCCC[C@H]1C(=O)N(C)CC(=O)N[C@@H](CC(=O)O)C(=O)N[C@@H](C(C)C)C(=O)N(C)[C@@H](Cc2ccccc2)C(=O)N[C@@H](Cc2ccc(O)cc2)C(=O)N(C)CC(=O)N[C@@H](Cc2c[nH]c3ccccc23)C(=O)N[C@@H](Cc2ccc(O)cc2)C(=O)N[C@@H](CC(C)C)C(=O)N[C@H](C(=O)NCC(N)=O)CSCC(=O)N[C@@H](Cc2ccccc2)C(=O)N(C)[C@@H](Cc2ccccc2)C(=O)N1C` [Cpd 27] (HELM PEPTIDE1{[O=C(C[*:3])[*:2]].F.[meF].[CCCC[C@@H](C(=O)[*:2])N(C)[*:1]].[Sar].D.V.[meF].Y.[Sar].W.Y.L.C.G.[am]}$PEPTIDE1,PEPTIDE1,1:R3-14:R3$$$V2.0), for which the IC50 at PD-1/PD-L1 [1] was > 1 nM.

For `Cc1c(NC(=O)c2nc3c(n2C)CCN(C2CCCCC2)C3)cccc1-c1cccc(NC(=O)c2nc3c(n2C)CCN(C2CCC(C)(C(=O)O)CC2)C3)c1Cl` (stereo not shown) [Compound 139, 4-(2-((2-chloro-3-(5-cyclohexyl-1-methyl-4,5,6,7-tetrahydro-1H-imidazo[4,5-c]pyridine-2-carboxamido)-2′-methyl-[1,1′-biphenyl]-3-yl)carbamoyl)-1-methyl-1,4,6,7-tetrahydro-5H-imidazo[4,5-c]pyridin-5-yl)-1-methylcyclohexane-1-carboxylic acid], the half-maximal inhibitory concentration (IC50) on PD-1/PD-L1 [2] was ≤ 10 nM.

`Cc1c(NC(=O)c2nc3c(n2C)CCN(C2C4CC5CC2CC(C(=O)O)(C5)C4)C3)cccc1-c1cccc(NC(=O)c2nc3c(n2C)CCN(C)C3)c1Cl` (stereo not shown) [175 (compound 175-1), 4-(2-((2′-chloro-3′-(1,5-dimethyl-4,5,6,7-tetrahydro-1H-imidazo[4,5-c]pyridine-2-carboxamido)-2-methyl-[1,1′-biphenyl]-3-yl)carbamoyl)-1-methyl-1,4,6,7-tetrahydro-5H-imidazo[4,5-c]pyridin-5-yl)adamantane-1-carboxylic acid]: the IC50 on PD-1/PD-L1 [2] was ≤ 10 nM.

With `Cc1c(NC(=O)c2nc3c(n2C)CCN(C[C@H](C)O)C3)cccc1-c1cccc(NC(=O)c2nc3c(n2C)CCN(CC2CC2)C3)c1Cl` [Example 46, (S)—N-(2-chloro-3′-(5-(2-hydroxypropyl)-1-methyl-4,5,6,7-tetrahydro-1H-imidazo[4,5-c]pyridine-2-carboxamido)-2′-methylbiphenyl-3-yl)-5-(cyclopropylmethyl)-1-methyl-4,5,6,7-tetrahydro-1H-imidazo[4,5-c]pyridine-2-carboxamide], the IC50 at PD-1/PD-L1 [2] is ≤ 10 nM.
